In the supplement of paper PMC10331698:
± gives the standard deviation of the averaged measurements.

What was measured:
Assay in all cases: level (log10 ratio to DMSO vehicle control); higher = higher biomarker level / cell amount than vehicle control
Settings in all cases: in DMSO
[1] = compound: O=S(=O)(F)C(F)(F)C(F)(F)C(F)(F)C(F)(F)C(F)(F)C(F)(F)C(F)(F)C(F)(F)F [Perfluorooctanesulfonyl fluoride]
Protocol: (§1)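 BioMAP Diversity Plus panel of 12 human primary cell co-culture systems (3C, 4H, LPS, SAg, BT, BF4T, BE3C, CASM3C, HDF3CGF, KF3CT, MyoF, Mphg). Compounds were added 1 h before stimulation and left for 24 h (MyoF 48 h; BT 72 h for soluble read-outs or 6 d for IgG). Biomarkers were read by ELISA, cytotoxicity by SRB, PBMC viability and proliferation by Alamar Blue. Each well value was divided by the mean of 8 DMSO control wells on the same plate and log10 transformed; duplicate blinded samples were tested at 4 concentrations.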

[2] = compound: FC(F)(F)C(F)(F)CNCC(F)(F)C(F)(F)F [Bis(1H,1H-perfluoropropyl)amine]
Protocol: as §1

[3] = compound: O=S(=O)(Cl)C(F)(F)C(F)(F)C(F)(F)C(F)(F)C(F)(F)C(F)(F)C(F)(F)C(F)(F)F [Perfluoro-1-octanesulfonyl chloride]
Protocol: as §1

Hexafluoroamylene glycol = compound: OCC(F)(F)C(F)(F)C(F)(F)CO [Hexafluoroamylene glycol]
Protocol: as §1

[4] = compound: O=C(O)C=CC(F)(C(F)(F)F)C(F)(F)F [3-(Perfluoroisopropyl)-2-propenoic acid]
Protocol: as §1

[5] = compound: O=S(=O)(O)C(F)(F)C(F)(F)C(F)(F)C(F)(F)C(F)(F)C(F)(F)C(F)(F)C(F)(F)C(F)(F)C(F)(F)F [Sodium perfluorodecanesulfonate]
Protocol: as §1

Test System | level (log10) ([1]; 6700 nM) | level (log10) ([1]; 20000 nM) | level (log10) ([1]; 60000 nM) | level (log10) ([2]; 6700 nM) | level (log10) ([2]; 20000 nM) | level (log10) ([2]; 60000 nM) | level (log10) ([3]; 6700 nM) | level (log10) ([3]; 20000 nM) | level (log10) ([3]; 60000 nM) | level (log10) (Hexafluoroamylene glycol; 6700 nM) | level (log10) (Hexafluoroamylene glycol; 20000 nM) | level (log10) (Hexafluoroamylene glycol; 60000 nM) | level (log10) ([4]; 6700 nM) | level (log10) ([4]; 20000 nM) | level (log10) ([4]; 60000 nM) | level (log10) ([5]; 1500 nM) | level (log10) ([5]; 4400 nM) | level (log10) ([5]; 13000 nM) | level (log10) ([5]; 40000 nM)
3C:CXCL9/MIG | -0.008 ± 0.0099 | -0.0015 ± 0.00071 | 0.0055 ± 0.012 | 0.0005 ± 0.013 | 0.003 ± 0.0071 | 0.016 ± 0.025 | -0.011 ± 0.0057 | -0.003 ± 0.0028 | 0.021 ± 0.018 | -0.006 ± 0.0071 | -0.01 ± 0.0057 | 0.007 | 0.004 ± 0.0071 | -0.0105 ± 0.0064 | 0.0045 ± 0.016 | -0.005 ± 0.0099 | -0.018 ± 0.011 | -0.0025 ± 0.0064 | 0.001 ± 0.0057
3C:Proliferation | 0.0125 ± 0.0092 | 0.0095 ± 0.016 | 0.0055 ± 0.046 | 0.008 ± 0.023 | 0.0205 ± 0.00071 | -0.0025 ± 0.018 | -0.003 ± 0.0042 | 0.009 ± 0.03 | -0.112 ± 0.037 | -0.0035 ± 0.028 | 0.0075 ± 0.067 | 0.019 ± 0.03 | -0.0185 ± 0.09 | -0.002 ± 0.037 | -0.0145 ± 0.049 | -0.0815 ± 0.013 | -0.056 ± 0.017 | -0.038 ± 0.02 | -0.229 ± 0.011
3C:SRB | 0.0035 ± 0.00071 | -0.0035 ± 0.0078 | -0.003 ± 0.013 | -0.02 ± 0.021 | 0.0105 ± 0.0092 | 0.0075 ± 0.0064 | -0.0105 ± 0.0078 | 0.0015 ± 0.022 | -0.233 ± 0.084 | -0.01 ± 0.0085 | -0.0035 ± 0.021 | 0 ± 0.021 | 0.0035 ± 0.0078 | 0.0055 ± 0.019 | 0.0155 ± 0.015 | -0.0035 ± 0.0035 | -0.0155 ± 0.016 | -0.04 ± 0.021 | -0.191 ± 0.0028
4H:CCL2/MCP-1 | 0 | -0.0195 ± 0.0035 | -0.0005 ± 0.023 | -0.0345 ± 0.012 | -0.035 ± 0.0042 | -0.0105 ± 0.026 | -0.0125 ± 0.021 | -0.0475 ± 0.0035 | -0.11 ± 0.12 | 0.0255 ± 0.022 | -0.02 ± 0.027 | 0.009 ± 0.0099 | 0.008 ± 0.025 | -0.0105 ± 0.022 | 0.0005 ± 0.0064 | -0.0285 ± 0.0078 | -0.045 ± 0.0057 | -0.0725 ± 0.028 | -0.05 ± 0.0057
4H:CCL26/Eotaxin-3 | 0.001 ± 0.0028 | -0.0025 ± 0.00071 | 0.0005 ± 0.005 | 0.06 ± 0.045 | 0.0245 ± 0.059 | 0.041 ± 0.064 | 0.012 ± 0.014 | -0.066 ± 0.0071 | -0.0725 ± 0.043 | 0.0655 ± 0.0021 | 0.0725 ± 0.015 | 0.0585 ± 0.0064 | -0.011 ± 0.0014 | -0.011 ± 0.0014 | 0.016 ± 0.0085 | -0.038 ± 0.0085 | -0.052 ± 0.0014 | -0.0885 ± 0.037 | -0.129 ± 0.063
4H:CD62P/P-selectin | 0.061 ± 0.021 | -0.034 ± 0.079 | -0.0275 ± 0.0064 | -0.0155 ± 0.025 | -0.02 ± 0.0028 | 0.005 ± 0.013 | 0.0315 ± 0.012 | 0.0485 ± 0.018 | 0.084 ± 0.031 | -0.029 ± 0.095 | 0.014 ± 0.058 | -0.0385 ± 0.0021 | -0.001 ± 0.02 | -0.0105 ± 0.012 | 0.023 ± 0.0085 | -0.0165 ± 0.021 | 0.034 ± 0.018 | 0.064 ± 0.03 | 0.08 ± 0.033
4H:CD87/uPAR | 0.013 ± 0.028 | 0.008 ± 0.033 | 0.001 ± 0.0042 | -0.0665 ± 0.029 | -0.027 ± 0.035 | -0.047 ± 0.064 | -0.0165 ± 0.054 | -0.023 ± 0.048 | -0.117 ± 0.053 | 0.0015 ± 0.0021 | -0.0205 ± 0.037 | -0.027 ± 0.023 | 0.034 ± 0.016 | 0.055 ± 0.054 | 0.105 ± 0.027 | 0.0235 ± 0.056 | 0.0145 ± 0.022 | 0.0455 ± 0.0064 | 0.0065 ± 0.013
4H:SRB | 0.0015 ± 0.00071 | 0.001 ± 0.0028 | -0.0035 ± 0.0064 | -0.0245 ± 0.013 | 0 ± 0.017 | 0.0015 ± 0.013 | -0.0105 ± 0.0078 | 0 ± 0.014 | -0.0495 ± 0.061 | -0.0055 ± 0.0035 | -0.004 ± 0.0071 | 0.005 ± 0.02 | 0.001 ± 0.018 | -0.0045 ± 0.029 | 0.004 ± 0.021 | -0.003 ± 0.0042 | -0.004 ± 0.0071 | -0.017 ± 0.0014 | -0.023 ± 0.0099
